The target in test [1] is recombinant His-tag Wip1(2-420) protein (amino acids #2-420) (Homo sapiens (Human), UniProt O15297). The test can be described thus: Wip1(2-420) phosphatase enzyme FDP assay. Type of test: biochemical. The settings on record: fluorescein diphosphate (FDP) substrate, RT 2 hours, fluorescence Ex485/Em535; read-out: WIP1 (Truncated 2-420) FDP Assay: IC50.
Test [2] has as its target recombinant His-tag Wip1 full length protein (amino acids #1-605) (Homo sapiens (Human), UniProt O15297). The test can be described thus: Wip1 full length phosphatase enzyme FDP assay. Type of test: biochemical. The conditions noted are these: fluorescein diphosphate (FDP) substrate, RT 2 hours, fluorescence Ex485/Em535.

We go through 18 compounds from US20240116910A1, “Heterocycles as WIP1 Inhibitors” (PMV Pharmaceuticals, Inc., priority 2022, published 2024).

recombinant His-tag Wip1(2-420) protein (amino acids #2-420), sequence (O15297 2-420): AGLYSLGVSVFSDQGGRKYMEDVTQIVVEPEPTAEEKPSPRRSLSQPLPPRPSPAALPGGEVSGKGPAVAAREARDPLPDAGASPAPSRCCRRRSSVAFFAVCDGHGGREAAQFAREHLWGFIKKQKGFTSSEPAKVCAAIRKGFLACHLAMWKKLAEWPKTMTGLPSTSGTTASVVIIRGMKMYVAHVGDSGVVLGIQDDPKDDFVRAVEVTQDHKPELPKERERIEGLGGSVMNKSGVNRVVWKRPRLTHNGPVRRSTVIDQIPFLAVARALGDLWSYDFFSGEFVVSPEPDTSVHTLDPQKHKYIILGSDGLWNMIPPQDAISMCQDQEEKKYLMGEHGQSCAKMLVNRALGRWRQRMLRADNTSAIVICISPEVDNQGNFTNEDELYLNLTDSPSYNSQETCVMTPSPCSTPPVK
recombinant His-tag Wip1 full length protein (amino acids #1-605), sequence (O15297 whole entry): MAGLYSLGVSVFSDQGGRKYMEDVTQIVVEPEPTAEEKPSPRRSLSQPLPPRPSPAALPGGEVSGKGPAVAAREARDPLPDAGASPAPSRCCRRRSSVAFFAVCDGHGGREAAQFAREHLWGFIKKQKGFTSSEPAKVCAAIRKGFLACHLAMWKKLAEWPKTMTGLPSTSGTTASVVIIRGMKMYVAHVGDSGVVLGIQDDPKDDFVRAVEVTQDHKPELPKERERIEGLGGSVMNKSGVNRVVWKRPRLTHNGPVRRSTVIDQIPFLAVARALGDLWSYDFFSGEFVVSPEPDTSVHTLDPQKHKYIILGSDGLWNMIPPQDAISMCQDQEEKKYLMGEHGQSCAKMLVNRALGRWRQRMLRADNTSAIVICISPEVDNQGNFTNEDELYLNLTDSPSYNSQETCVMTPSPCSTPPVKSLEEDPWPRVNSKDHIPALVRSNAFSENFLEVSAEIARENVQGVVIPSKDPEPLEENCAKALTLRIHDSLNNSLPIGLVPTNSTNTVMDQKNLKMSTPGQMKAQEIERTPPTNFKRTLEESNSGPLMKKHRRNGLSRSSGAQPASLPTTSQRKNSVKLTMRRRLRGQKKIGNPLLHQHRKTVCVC

For orientation: IC50 means the concentration needed to halve the response being measured. On to `COc1cc(NC(=O)[C@H](CC2CCCC2)NC(=O)c2ccc([C@H](C)Nc3cc(Cl)cnc3C)s2)ccn1` [Compound 156, (2S)-2-({5-[(1S)-1-[(5-chloro-2-methylpyridin-3-yl)amino]ethyl]thiophen-2-yl}formamido)-3-cyclopentyl-N-(2-methoxypyridin-4-yl)propanamide], for which the results for the IC50 in test [1] and in test [2] were 4 nM and 9 nM, respectively.
Consider `COc1ncc(Cl)cc1N[C@@H](C)c1ccc(C(=O)N[C@@H](CC2CCCC2)C(=O)N[C@@H]2CC2(F)F)s1` [Compound 40, (2S)-2-({5-[(1S)-1-[(5-chloro-2-methoxypyridin-3-yl)amino]ethyl]thiophen-2-yl}formamido)-3-cyclopentyl-N-[(1R)-2,2-difluorocyclopropyl]propanamide], for which the IC50 in test [1] is 149 nM; in test [2], 181 nM.
For `Cc1ncc(Cl)cc1N[C@@H](C)c1ccc(C(=O)N[C@@H](CC2CCCC2)C(=O)NC23CC(C(N)=O)(C2)C3)s1` [Compound 45, 3-[(2S)-2-({5-[(1S)-1-[(5-chloro-2-methylpyridin-3-yl)amino]ethyl]thiophen-2-yl}formamido)-3-cyclopentylpropanamido]bicyclo[1.1.1]pentane-1-carboxamide], the IC50 was 7 nM in test [1] and 9 nM in test [2].
On the same counts, the results for `O=C(N[C@@H](CC1CCCCC1)C(=O)Nc1ccccn1)c1cnc(CNc2cncc(Cl)c2)s1` [Compound 302, 2-[[(5-chloro-3-pyridyl)amino]methyl]-N-[(1S)-1-(cyclohexylmethyl)-2-oxo-2-(2-pyridylamino)ethyl]thiazole-5-carboxamide] are 55 nM and 15 nM.
With `Cc1ncc(Cl)cc1NC(C)c1ccc(C(=O)N[C@@H](CC2CCCC2)C(=O)NC2CC2(F)F)s1` (stereo partly drawn) [Compound 13, (2S)-2-[(5-{1-[(5-chloro-2-methylpyridin-3-yl)amino]ethyl}thiophen-2-yl)formamido]-3-cyclopentyl-N-(2,2-difluorocyclopropyl)propanamide], the IC50 in test [1] was 10 nM; in test [2] it was 11 nM.
On the same counts, the results for `Cc1ncc(Cl)cc1N[C@@H](C)c1ccc(C(=O)N[C@@H](CC2CCCC2)C(=O)NC2CC(C)C2)s1` (stereo partly drawn) [Compound 76, (2S)-2-({5-[(1S)-1-[(5-chloro-2-methylpyridin-3-yl)amino]ethyl]thiophen-2-yl}formamido)-3-cyclopentyl-N-(3-methylcyclobutyl)propanamide] are 7 nM and 9 nM.
On the same counts, the results for `CC[C@H](Nc1cc(Cl)cnc1C)c1ccc(C(=O)N[C@@H](CC2CCCC2)C(=O)NC23CC(C2)C3)s1` [Compound 68, (2S)-N-{bicyclo[1.1.1]pentan-1-yl}-2-({5-[(1S)-1-[(5-chloro-2-methylpyridin-3-yl)amino]propyl]thiophen-2-yl}formamido)-3-cyclopentylpropanamide] are 6 nM and 8 nM.
For `Cc1cc(NC(=O)[C@H](CCC(C)C)NC(=O)c2ccc([C@H](C)Nc3cc(Cl)cnc3C)s2)ccn1` [Compound 210, (2S)-2-({5-[(1S)-1-[(5-chloro-2-methylpyridin-3-yl)amino]ethyl]thiophen-2-yl}formamido)-5-methyl-N-(2-methylpyridin-4-yl)hexanamide], the results for the IC50 in test [1] and in test [2] were 7 nM and 10 nM, respectively.
In the same order, the values of `Cc1ncc(Cl)cc1N[C@@H](C)c1ccc(C(=O)N[C@@H](CC2CCCC2)C(=O)NC2(C(F)(F)F)CC2)s1` [Compound 42, (2S)-2-({5-[(1S)-1-[(5-chloro-2-methylpyridin-3-yl)amino]ethyl]thiophen-2-yl}formamido)-3-cyclopentyl-N-[1-(trifluoromethyl)cyclopropyl]propanamide] are 12 nM and 15 nM.
In the same order, the values of `Cc1ncc(Cl)cc1NC(C)c1ccc(C(=O)N[C@@H](CC2CCCC2)C(=O)NC23CC(C2)C3)s1` (stereo partly drawn) [Compound 10, N-[(1S)-2-(1-bicyclo [1.1.1]pentanylamino)-1-(cyclopentylmethyl)-2-oxo-ethyl]-5-[1-[(5-chloro-2-methyl-3-pyridyl)amino]ethyl]thiophene-2-carboxamide] are 10 nM and 18 nM.
Consider `CC[C@H](Nc1cc(Cl)cnc1C)c1ccc(C(=O)N[C@@H](CC2CCCC2)C(=O)NC2CC2)s1` [Compound 37, (2S)-2-({5-[(1S)-1-[(5-chloro-2-methylpyridin-3-yl)amino]propyl]thiophen-2-yl}formamido)-3-cyclopentyl-N-cyclopropylpropanamide], for which the concentration for half-maximal inhibition (IC50) was 6 nM in test [1] and 9 nM in test [2].
On to `Cc1ncc(Cl)cc1N[C@@H](C)c1ccc(C(=O)N[C@@H](CC2CCCC2)C(=O)Nc2ccc(F)cc2)s1` [Compound 18, (2S)-2-({5-[(1S)-1-[(5-chloro-2-methylpyridin-3-yl)amino]ethyl]thiophen-2-yl}formamido)-3-cyclopentyl-N-(4-fluorophenyl)propanamide], for which the IC50 turned out to be 7 nM in test [1] and 8 nM in test [2].
On to `Cc1ncc(Cl)cc1N[C@@H](C)c1ccc(C(=O)N[C@H](C(=O)Nc2cnn(C)c2)C2CCCCC2)s1` [Compound 177, (2S)-2-({5-[(1S)-1-[(5-chloro-2-methylpyridin-3-yl)amino]ethyl]thiophen-2-yl}formamido)-2-cyclohexyl-N-(1-methyl-1H-pyrazol-4-yl)acetamide], for which the IC50 in test [1] turned out to be 18 nM; in test [2], 23 nM.
With `Cc1ncc(Cl)cc1NC(C)c1ncc(C(=O)N[C@@H](CC2CCCC2)C(=O)NC2CC2)s1` (stereo partly drawn) [Compound 280, (2S)-2-[(2-{1-[(5-chloro-2-methylpyridin-3-yl)amino]ethyl}-1,3-thiazol-5-yl)formamido]-3-cyclopentyl-N-cyclopropylpropanamide], the figures for the IC50 in test [1] and in test [2] were 41 nM and 70 nM, respectively.
With `COc1ncc(Cl)cc1N[C@H](C)c1ccc(C(=O)N[C@@H](CC2CCCC2)C(=O)N[C@@H]2CC2(F)F)s1` [Compound 36, (2S)-2-({5-[(1R)-1-[(5-chloro-2-methoxypyridin-3-yl)amino]ethyl]thiophen-2-yl}formamido)-3-cyclopentyl-N-[(1R)-2,2-difluorocyclopropyl]propanamide], the figures for the IC50 in test [1] and in test [2] were 8 nM and 10 nM, respectively.
On the same counts, the results for `Cc1ncc(Cl)cc1NC(C)(C)c1ccc(C(=O)N[C@@H](CC2CCCC2)C(=O)NC2CC2)s1` [Compound 55, (2S)-2-[(5-{2-[(5-chloro-2-methylpyridin-3-yl)amino]propan-2-yl}thiophen-2-yl)formamido]-3-cyclopentyl-N-cyclopropylpropanamide] are 29 nM and 36 nM.
For the compound `Cc1ncc(Cl)cc1NC(C)c1ccc(C(=O)N[C@@H](CC2CCCC2)C(=O)NC2CC2)s1` (stereo partly drawn) [Compound 5, 5-[1-[(5-chloro-2-methyl-3-pyridyl)amino]ethyl]-N-[(1S)-1-(cyclopentylmethyl)-2-(cyclopropylamino)-2-oxo-ethyl]thiophene-2-carboxamide], the IC50 in test [1] is 13 nM; in test [2], 24 nM.
In the same order, the values of `C[C@H](c1ccc(C(=O)N[C@@H](CC2CCCC2)C(=O)NC2CC2)s1)N1CCc2cc(F)c(Cl)cc21` [Compound 57, (2S)-2-({5-[(1R)-1-(6-chloro-5-fluoro-2,3-dihydro-1H-indol-1-yl)ethyl]thiophen-2-yl}formamido)-3-cyclopentyl-N-cyclopropylpropanamide] are 12 nM and 16 nM.
